Active and inactive are the calls of the source.
What was measured:
[1] = molecular target: T1, Sentrin-specific protease 8 (Homo sapiens, UniProt Q96LD8); experiment: inhibition of human SENP8 cleavage activity – biochemical, luminescence, SAR follow-up (AID 504501); type: functional
T1 sequence (Q96LD8 whole entry): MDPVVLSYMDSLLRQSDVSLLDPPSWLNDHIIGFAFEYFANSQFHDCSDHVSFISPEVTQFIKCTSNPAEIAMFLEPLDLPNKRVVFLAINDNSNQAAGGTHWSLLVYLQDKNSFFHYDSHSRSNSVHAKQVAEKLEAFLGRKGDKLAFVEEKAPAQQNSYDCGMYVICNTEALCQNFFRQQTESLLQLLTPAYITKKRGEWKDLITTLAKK

[2] = molecular target: T2, Sentrin-specific protease 6 (Homo sapiens, UniProt Q9GZR1); experiment: SAR Analysis of small molecule inhibitors of Sentrin-specific protease 6 (SENP6) using a Luminescent assay. [Related pubchem assays (depositor defined):AID2582, AID2599]; type: functional
T2 sequence (Q9GZR1 whole entry): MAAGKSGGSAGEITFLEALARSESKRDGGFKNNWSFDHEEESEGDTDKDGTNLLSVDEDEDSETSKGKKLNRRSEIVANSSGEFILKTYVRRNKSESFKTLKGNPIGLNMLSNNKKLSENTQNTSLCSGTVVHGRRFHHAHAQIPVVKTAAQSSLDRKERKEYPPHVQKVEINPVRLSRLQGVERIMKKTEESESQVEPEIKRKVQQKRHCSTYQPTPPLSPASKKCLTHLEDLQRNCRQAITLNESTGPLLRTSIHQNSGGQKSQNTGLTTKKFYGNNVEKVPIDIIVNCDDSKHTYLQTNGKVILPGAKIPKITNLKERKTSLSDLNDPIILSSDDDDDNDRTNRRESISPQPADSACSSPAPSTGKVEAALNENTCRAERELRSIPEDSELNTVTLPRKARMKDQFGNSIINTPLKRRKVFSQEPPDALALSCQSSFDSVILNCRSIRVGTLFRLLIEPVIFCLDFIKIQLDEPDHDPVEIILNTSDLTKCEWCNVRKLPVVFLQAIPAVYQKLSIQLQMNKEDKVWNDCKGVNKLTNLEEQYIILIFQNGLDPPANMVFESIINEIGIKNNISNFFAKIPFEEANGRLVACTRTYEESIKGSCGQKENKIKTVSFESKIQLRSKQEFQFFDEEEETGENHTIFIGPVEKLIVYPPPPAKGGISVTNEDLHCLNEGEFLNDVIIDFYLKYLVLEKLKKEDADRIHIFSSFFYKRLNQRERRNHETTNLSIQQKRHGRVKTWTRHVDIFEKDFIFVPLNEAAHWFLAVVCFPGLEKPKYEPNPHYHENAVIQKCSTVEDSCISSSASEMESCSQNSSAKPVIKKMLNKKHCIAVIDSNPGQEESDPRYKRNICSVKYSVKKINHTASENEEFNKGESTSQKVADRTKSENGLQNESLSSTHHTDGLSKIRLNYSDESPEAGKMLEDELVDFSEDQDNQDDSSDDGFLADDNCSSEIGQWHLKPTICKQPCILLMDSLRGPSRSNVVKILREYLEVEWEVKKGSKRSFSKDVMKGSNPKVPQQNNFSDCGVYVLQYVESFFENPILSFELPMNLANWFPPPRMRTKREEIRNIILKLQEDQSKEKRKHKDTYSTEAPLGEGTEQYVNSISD

[3] = molecular target: T3, Sentrin-specific protease 7 (Homo sapiens, UniProt Q9BQF6); experiment: inhibition of human SENP7 cleavage activity – biochemical, luminescence, SAR follow-up (AID 504497); type: functional
T3 sequence (Q9BQF6 whole entry): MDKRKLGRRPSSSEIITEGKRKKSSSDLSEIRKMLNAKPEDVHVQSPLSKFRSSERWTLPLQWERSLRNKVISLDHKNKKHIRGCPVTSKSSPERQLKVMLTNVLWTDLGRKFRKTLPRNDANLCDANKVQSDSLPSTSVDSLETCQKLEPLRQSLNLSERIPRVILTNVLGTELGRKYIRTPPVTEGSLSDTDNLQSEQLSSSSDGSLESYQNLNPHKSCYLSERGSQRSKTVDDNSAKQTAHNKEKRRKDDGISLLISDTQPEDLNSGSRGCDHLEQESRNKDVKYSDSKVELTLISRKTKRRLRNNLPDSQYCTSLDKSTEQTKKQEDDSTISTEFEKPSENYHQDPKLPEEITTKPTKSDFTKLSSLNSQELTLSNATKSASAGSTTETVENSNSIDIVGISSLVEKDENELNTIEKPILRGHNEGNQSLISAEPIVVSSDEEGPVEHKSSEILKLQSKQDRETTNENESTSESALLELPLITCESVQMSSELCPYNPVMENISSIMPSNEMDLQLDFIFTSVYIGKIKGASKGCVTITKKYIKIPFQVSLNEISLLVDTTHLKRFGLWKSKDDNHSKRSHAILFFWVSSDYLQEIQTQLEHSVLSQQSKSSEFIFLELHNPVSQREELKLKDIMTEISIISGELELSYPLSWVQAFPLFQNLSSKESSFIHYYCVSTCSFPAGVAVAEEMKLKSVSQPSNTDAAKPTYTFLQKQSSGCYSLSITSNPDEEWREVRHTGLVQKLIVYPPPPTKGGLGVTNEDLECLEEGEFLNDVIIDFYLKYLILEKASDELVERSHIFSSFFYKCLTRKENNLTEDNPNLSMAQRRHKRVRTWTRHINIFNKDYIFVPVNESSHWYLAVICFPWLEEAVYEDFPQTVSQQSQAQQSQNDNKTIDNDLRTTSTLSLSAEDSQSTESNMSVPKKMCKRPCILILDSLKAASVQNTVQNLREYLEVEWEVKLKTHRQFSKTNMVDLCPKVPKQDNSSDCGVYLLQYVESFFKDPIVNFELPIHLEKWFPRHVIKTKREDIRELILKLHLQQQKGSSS

[4] = molecular target: T4, Caspase-3 (Homo sapiens, UniProt P42574); experiment: SAR Analysis of small molecule inhibitors of Sentrin-specific proteases (SENPs) using a Caspase-3 Selectivity assay. [Related pubchem assays (depositor defined):AID2540, AID2599, AID434973, AID489001]; type: functional
T4 sequence (P42574 whole entry): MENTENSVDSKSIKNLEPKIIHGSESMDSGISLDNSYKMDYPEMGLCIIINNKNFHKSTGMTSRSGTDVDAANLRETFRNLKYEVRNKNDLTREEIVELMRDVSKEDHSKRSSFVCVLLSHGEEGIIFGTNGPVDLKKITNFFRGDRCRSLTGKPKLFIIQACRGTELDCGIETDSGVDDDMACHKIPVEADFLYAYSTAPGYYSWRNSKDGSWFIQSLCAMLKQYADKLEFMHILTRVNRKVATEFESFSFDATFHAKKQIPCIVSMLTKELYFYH

[5] = molecular target: Prothrombin (Bos taurus, UniProt P00735); experiment: thrombin protease inhibitors – biochemical, fluorescence polarization, uHTS hits, dose response (AID 602369); type: functional
[6] = viability loss in HeLa cells – cytotoxicity control for MgcRacGAP inhibitor project, dose response (AID 624300); type: functional
[7] = molecular target: T5, Rac GTPase-activating protein 1 (Homo sapiens, UniProt Q9H0H5); experiment: blockers of MgcRacGAP-driven Rac1 GTP hydrolysis – biochemical, ADP Hunter fluorescence, primary and confirmatory, confirmation (AID 624330); type: functional
T5 sequence (Q9H0H5 whole entry): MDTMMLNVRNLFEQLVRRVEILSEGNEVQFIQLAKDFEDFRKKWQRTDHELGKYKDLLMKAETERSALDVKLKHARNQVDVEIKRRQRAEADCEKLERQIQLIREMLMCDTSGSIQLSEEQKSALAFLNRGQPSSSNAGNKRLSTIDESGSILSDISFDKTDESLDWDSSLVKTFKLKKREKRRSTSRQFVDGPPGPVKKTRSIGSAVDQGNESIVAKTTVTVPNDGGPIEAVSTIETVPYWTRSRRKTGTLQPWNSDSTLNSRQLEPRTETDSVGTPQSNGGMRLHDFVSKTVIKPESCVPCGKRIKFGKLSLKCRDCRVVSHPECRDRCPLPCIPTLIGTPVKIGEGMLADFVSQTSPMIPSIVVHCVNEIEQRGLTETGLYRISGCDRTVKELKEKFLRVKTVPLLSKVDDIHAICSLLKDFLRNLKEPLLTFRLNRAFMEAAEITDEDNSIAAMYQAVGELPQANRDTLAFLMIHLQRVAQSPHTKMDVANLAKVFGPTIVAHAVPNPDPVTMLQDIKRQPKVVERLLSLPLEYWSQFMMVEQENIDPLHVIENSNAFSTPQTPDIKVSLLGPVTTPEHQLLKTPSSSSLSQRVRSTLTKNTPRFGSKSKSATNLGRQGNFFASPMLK

[8] = molecular target: Heat shock protein HSP 90-alpha (Homo sapiens, UniProt P07900); type: functional, organism-based
[9] = molecular target: Phospholipase A2 (Homo sapiens, UniProt P04054); type: functional;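 further: confirmatory dose-response counterscreen on phospholipase A2, testing hits that came from an ultra-high-throughput screen for ATG4B inhibitors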
Sequence of Phospholipase A2 (P04054 whole entry): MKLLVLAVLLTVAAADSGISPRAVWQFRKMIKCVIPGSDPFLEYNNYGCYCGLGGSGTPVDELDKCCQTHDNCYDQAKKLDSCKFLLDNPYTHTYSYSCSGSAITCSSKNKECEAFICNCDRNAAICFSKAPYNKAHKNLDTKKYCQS

[10] = molecular target: 72 kDa type IV collagenase (Homo sapiens, UniProt P08253); experiment: Dose Response validation of uHTS RPN11 inhibitor hits using a MMP-2 Fluorescence assay.; type: functional
Sequence of 72 kDa type IV collagenase (P08253 whole entry): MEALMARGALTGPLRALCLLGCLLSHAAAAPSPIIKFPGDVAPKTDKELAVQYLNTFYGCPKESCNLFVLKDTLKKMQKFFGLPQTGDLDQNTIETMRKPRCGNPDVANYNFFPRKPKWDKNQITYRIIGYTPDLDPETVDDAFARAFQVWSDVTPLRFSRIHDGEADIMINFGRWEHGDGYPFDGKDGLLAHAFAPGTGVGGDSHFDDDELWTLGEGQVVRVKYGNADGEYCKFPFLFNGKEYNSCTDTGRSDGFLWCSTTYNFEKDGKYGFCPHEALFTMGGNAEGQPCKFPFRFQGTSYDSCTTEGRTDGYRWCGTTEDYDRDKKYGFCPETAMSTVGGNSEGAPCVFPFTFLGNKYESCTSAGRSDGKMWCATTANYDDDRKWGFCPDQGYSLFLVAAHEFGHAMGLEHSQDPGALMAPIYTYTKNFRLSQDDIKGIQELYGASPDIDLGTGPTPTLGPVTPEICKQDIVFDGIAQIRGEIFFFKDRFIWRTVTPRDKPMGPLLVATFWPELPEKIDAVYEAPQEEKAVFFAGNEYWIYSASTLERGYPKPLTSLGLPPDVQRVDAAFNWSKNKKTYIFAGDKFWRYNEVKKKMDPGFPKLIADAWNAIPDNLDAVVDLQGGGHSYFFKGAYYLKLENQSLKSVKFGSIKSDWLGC

[11] = molecular target: 26S proteasome non-ATPase regulatory subunit 14 (Homo sapiens, UniProt O00487); experiment: inhibition of proteasome subunit RPN11 – biochemical, fluorescence polarization, uHTS hits, confirmation (AID 602368); type: functional
Sequence of 26S proteasome non-ATPase regulatory subunit 14 (O00487 whole entry): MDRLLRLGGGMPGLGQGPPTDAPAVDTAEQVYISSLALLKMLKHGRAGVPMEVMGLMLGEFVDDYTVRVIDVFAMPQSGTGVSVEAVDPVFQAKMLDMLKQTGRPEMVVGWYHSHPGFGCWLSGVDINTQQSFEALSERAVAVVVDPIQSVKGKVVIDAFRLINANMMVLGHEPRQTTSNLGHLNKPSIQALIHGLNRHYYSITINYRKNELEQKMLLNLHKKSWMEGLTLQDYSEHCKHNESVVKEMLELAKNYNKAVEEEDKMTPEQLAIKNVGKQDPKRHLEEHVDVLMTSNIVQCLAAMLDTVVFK

[12] = molecular target: Cysteine protease ATG4B (Homo sapiens, UniProt Q9Y4P1); type: functional;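 further: Fluorescence-based dose-response confirmation assay measuring inhibition of ATG4B activity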
Sequence of Cysteine protease ATG4B (Q9Y4P1 whole entry): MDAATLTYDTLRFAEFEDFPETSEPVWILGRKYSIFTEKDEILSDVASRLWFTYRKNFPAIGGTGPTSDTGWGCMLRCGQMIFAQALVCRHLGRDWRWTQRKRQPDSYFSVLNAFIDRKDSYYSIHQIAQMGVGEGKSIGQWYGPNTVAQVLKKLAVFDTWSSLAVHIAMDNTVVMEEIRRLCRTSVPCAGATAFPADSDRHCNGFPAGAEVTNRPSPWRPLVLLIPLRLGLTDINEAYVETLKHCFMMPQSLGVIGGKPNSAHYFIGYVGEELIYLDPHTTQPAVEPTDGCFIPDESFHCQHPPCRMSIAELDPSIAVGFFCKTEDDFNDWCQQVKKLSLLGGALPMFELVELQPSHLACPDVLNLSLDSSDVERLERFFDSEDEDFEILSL

[13] = molecular target: T6, DNA repair protein RAD52 homolog (Homo sapiens, UniProt P43351); type: functional, biochemical
T6 sequence (P43351 whole entry): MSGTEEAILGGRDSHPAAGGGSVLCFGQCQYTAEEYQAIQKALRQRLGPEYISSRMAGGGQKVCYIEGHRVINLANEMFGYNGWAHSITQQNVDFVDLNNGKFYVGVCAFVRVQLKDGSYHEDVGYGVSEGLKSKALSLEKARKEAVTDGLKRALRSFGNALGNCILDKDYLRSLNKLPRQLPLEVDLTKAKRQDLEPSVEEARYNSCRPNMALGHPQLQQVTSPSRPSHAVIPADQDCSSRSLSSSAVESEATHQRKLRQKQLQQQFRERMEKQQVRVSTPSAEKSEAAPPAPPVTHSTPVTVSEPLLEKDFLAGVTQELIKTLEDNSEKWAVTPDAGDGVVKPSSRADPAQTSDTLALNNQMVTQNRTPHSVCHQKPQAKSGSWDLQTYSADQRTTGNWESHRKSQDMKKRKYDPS

[14] = test system: BJ; experiment: cells; type: functional, cell-based; details: Homo sapiens
[15] = test system: BJ; experiment: growth inhibition of engineered Ras-driven BJ cells – cell-based, alamar blue fluorescence, cherrypicked samples, dose response (AID 2631); type: functional; details: Homo sapiens;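 further: confirmatory dose-response assay in RAS-dependent BJ fibroblasts engineered with TERT, LT and ST, with cytotoxicity read by fluorescence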
[16] = DRD fibroblast viability loss – cell-based, non-viral oncogenic, luminescence, dose response (AID 1934); type: functional; details: Homo sapiens
[17] = test system: BJ; experiment: BJ-TERT-LT-ST fibroblast viability loss – cell-based, RAS-independent, luminescence, dose response (AID 1935); type: functional; details: Homo sapiens;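 further: BJ fibroblasts immortalized with TERT plus LT and ST oncogenes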
[18] = test system: BJ; experiment: BJ-TERT fibroblast viability loss – cell-based, RAS-independent, luminescence, dose response (AID 1933); type: functional; details: Homo sapiens
[19] = test system: HEK293; experiment: cells; type: functional, cell-based; details: Homo sapiens
[20] = test system: HEK293; experiment: inhibition of NOD1-driven NF-kB reporter – cell-based, luminescence, uHTS, primary screen (AID 1578); type: functional; details: Homo sapiens
[21] = molecular target: Nucleotide-binding oligomerization domain-containing protein 2 (Homo sapiens, UniProt Q9HC29); experiment: inhibition of NOD2-driven NF-kB reporter – cell-based, luminescence, uHTS, HEK293 (AID 1566); type: functional
Sequence of Nucleotide-binding oligomerization domain-containing protein 2 (Q9HC29 whole entry, the tested form may be a part): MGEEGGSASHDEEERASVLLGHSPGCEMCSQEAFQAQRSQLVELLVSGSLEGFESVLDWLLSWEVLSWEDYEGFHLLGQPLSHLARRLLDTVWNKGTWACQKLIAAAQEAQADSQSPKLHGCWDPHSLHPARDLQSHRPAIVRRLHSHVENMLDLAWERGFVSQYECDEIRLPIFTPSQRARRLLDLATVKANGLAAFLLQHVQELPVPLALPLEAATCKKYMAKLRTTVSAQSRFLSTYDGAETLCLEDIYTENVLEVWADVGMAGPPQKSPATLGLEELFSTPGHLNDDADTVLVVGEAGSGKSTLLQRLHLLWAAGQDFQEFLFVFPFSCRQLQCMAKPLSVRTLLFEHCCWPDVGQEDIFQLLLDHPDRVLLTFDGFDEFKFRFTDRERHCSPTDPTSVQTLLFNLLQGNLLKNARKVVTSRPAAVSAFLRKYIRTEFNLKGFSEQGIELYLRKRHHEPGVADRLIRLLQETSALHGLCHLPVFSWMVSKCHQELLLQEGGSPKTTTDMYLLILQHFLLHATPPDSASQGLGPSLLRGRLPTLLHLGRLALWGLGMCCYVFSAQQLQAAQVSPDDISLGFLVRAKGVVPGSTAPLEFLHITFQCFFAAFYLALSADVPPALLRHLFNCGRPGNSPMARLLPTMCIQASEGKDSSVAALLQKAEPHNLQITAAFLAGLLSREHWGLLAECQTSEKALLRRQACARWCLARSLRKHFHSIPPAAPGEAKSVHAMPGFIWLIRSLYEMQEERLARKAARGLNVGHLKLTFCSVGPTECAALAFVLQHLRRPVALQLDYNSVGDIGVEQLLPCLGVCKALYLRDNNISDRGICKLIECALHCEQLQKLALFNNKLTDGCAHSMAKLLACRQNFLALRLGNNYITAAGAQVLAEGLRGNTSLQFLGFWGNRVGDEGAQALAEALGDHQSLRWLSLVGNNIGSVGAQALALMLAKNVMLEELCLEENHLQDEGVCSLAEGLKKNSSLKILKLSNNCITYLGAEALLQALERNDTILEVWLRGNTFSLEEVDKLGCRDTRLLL

[22] = test system: HEK293; experiment: cells; type: functional, cell-based; details: Homo sapiens; remark: listed apart in the source
[23] = test system: HEK293; experiment: NOD2 signaling inhibitors in MDP-stimulated cells, cell-based, uHTS, luminescence (AID 2001); type: functional; details: Homo sapiens
[24] = test system: HEK293; experiment: cells; type: functional, cell-based; details: Homo sapiens; remark: listed apart in the source

SMILES	IC50 [1]	IC50 [2]	IC50 [3]	IC50 [4]	IC50 [9]	IC50 [12]	EC50 [14]	EC50 [15]	EC50 [16]	EC50 [17]	EC50 [18]	other results
CCCC(=O)Nc1ccc(-c2nc3cc(Cl)ccc3s2)cc1	82.4 µM (active)	84.4 µM (active)	10.9 µM (active)	18.7 µM (active)	–	–	–	–	–	–	–	–
CCCCCCCCCCCCCCCC(O)C[N+](C)(C)CCO (stereo not given)	–	–	–	–	6.53 µM (active)	7.58 µM (active)	–	–	–	–	–	IC50 [5]: 45.1 µM (active); CC50 [6]: 33.4 µM (active); IC50 [7]: 86 µM (active); AC50 [8]: 5 µM (active); IC50 [10]: 81.8 µM (active); IC50 [11]: 22.1 µM (active); AC50 [13]: < 30.4 µM (active)
O=C(O)c1ccc(N/N=C/c2cn(Cc3ccccc3)c3ccccc23)cc1	> 99 µM (inactive)	> 99 µM (inactive)	96.9 µM (active)	> 99 µM (inactive)	–	–	–	–	–	–	–	–
O=C1SC(Cc2ccccc2)C(=O)N1c1ccccc1 (stereo not given)	–	–	–	–	–	–	> 150 µM (not active)	> 66.7 µM (inactive)	20.8 µM (active)	> 150 µM (not active)	5.85 µM (active)	–
CC(=O)Nc1ccc(C(=O)Nc2nc(-c3cc(C)n(Cc4ccccc4)c3C)cs2)cc1	–	–	–	–	5.37 µM (active)	10.2 µM (active)	–	–	–	–	–	IC50 [19]: > 20 µM (inactive); EC50 [20]: > 20 µM (inactive); EC50 [21]: > 20 µM (inactive); IC50 [22]: > 20 µM (inactive); IC50 [23]: > 20 µM (inactive); IC50 [24]: > 20 µM (inactive)
COc1cccc(/C=C2\SC(=S)N(CCCC(=O)Nc3cc(C)on3)C2=O)c1	–	–	–	–	–	–	> 150 µM (not active)	> 133 µM (inactive)	> 150 µM (not active)	> 150 µM (not active)	3.22 µM (inconclusive)	–

Reference: ChEMBL document CHEMBL1201862, “PubChem BioAssay data set” (2004)
